Laboratory results reported in US20170016886A1, “INDUCED PLURIPOTENT STEM CELL MODEL OF NOONAN SYNDROME AND USE THEREOF” (KOREA ADVANCED INSTITUTE OF SCIENCE AND TECHNOLOGY, priority 2014, published 2017).

Assays:
[1] = system: neural rosettes chemically differentiated from NS-iPSCs; assay: mRNA expression of ectoderm, neural rosette and neural marker genes in neural rosettes chemically differentiated from NS-iPSCs (RT-PCR, q-PCR); format: cell-based, human; details: stepwise treatment with both dorsomorphin (5 μM) and SB431542 (10 μM) together, versus normal control (H9, CRL12)
Experimental: To investigate whether or not the neural marker genes were normally expressed in the neural rosettes chemically differentiated from NS-iPSCs, the mRNA expression levels of the ectoderm genes PAX6, ZIC1, NESTIN, and VIMENTIN, and the NR genes PLZF, NR2F1, HES5, and DACH1, and the neural genes TUJ1, ASCL1, and NF1 were measured in the chemically differentiated NS-EBs. Particularly, the neural rosettes chemically differentiated from NS-iPSCs by the same manner as described in Example <6-1> were prepared. […] The expressions of those genes were observed by RT-PCR at mRNA level. As for the normal control, the neural rosettes chemically differentiated from H9 cell line and CRL12 in Example <6-1> were used. […] The expression of NR2F1 gene was measured by q-PCR at mRNA level. As the control group for the normalization of the expression level, GAPDH gene was used so that the expression was also measured. ΔCt value of each gene was calculated by the difference between Ct value of GAPDH and Ct value of NR2F1 gene. As for the control, the human normal embryonic stem cell line H9 and the human normal fibroblast-derived iPSCs (CRL12) were induced into neural rosettes via chemical treatments as described in Example <6-1>. The expressions of those neural rosettes were compared with the gene expression of NS-NR. The results are presented by the fold change calculated by the mathematical formula 1 above.

[2] = system: NS-iPSCs (Noonan syndrome patient-derived induced pluripotent stem cells); assay: Chemically directed differentiation of NS-iPSCs into embryoid bodies and neural rosettes, cell morphology; format: cell-based, human; details: stepwise treatment with both dorsomorphin (5 μM) and SB431542 (10 μM) together; NS-iPSC #4 and #5; compared with natural differentiation and normal control (H9, CRL12)
Source text: Due to the abnormality in the signal transduction system in Noonan syndrome, EBs and neural rosettes naturally differentiated from NS-iPSCs were abnormally developed. To overcome this problem, the present inventors induced chemically directed differentiation of EBs and neural rosettes from NS-iPSCs by using dorsomorphin (DM) and SB431542 according to the schematic diagram of FIG. 18 (FIG. 18 and Table 6). Particularly, the colonies of NS-iPSC #4 and NS-iPSC #5 induced by the same manner as described in Example <2-1> were quartered by using 1 ml insulin syringe. The quartered NS-iPSCs were loaded on ultra-low attachment dish (SPL life sciences Co., Ltd, Korea), which were resuspended in 4 ml of embryoid body differentiation media which was the DMEM/F12 (Invitrogen, USA) containing 10% serum replacement (SR; GIBCO, USA). The resuspended NS-iPSCs were cultured for 4 days to induce the differentiation into NS-EBs. Then, the differentiated NS-EBs were obtained and cultured for 4˜5 days on the matrigel (1:50, BD biosciences, USA) coated dish in the neural rosette media which consists of DMEM/F12 supplemented with N2, B27 and […] of bFGF (FGF2, R&D systems, USA). The generated Noonan syndrome-derived neural rosettes were mechanically selected and placed on the fibronectin (BD biosciences, USA) coated dish, followed by culture in the neural rosette media for 4˜5 days. […]

## NC(=O)c1ccc(-c2nc(-c3ccc4c(c3)OCO4)c(-c3ccccn3)[nH]2)cc1 [SB431542]
[1]; mRNA level in NS neural rosettes
  expression of NR2F1: decreased
[1]; mRNA level
  expressions of ectoderm, neural rosette, and neural marker genes: adjusted to the nearly normal level
[2]
  cell morphology of the chemically differentiated EBs and neural rosettes: recovered to a normal shape
